Laboratory results from patent US10072026B2, “Crystalline form of 3-((1R,3s,5S)-3-((7-((5-methyl-1H-pyrazol-3-yl)amino)-1,6-naphthyridin-5-yl)amino)-8-azabicyclo[3.2.1]octan-8-yl)propanenitrile” (priority 2015, dated 2018).
Where two headings read alike, the source gives them in different places.

Columns and labels:
[1] = test system: IL-4 induced STAT6 phosphorylation in THP-1 human monocytic cells; experiment: Cellular JAK potency assay, THP-1
JAK1 = JAK1 (Homo sapiens (Human), UniProt P23458); experiment: LanthaScreen JAK biochemical assay (JAK1)
JAK1, sequence (P23458 whole entry): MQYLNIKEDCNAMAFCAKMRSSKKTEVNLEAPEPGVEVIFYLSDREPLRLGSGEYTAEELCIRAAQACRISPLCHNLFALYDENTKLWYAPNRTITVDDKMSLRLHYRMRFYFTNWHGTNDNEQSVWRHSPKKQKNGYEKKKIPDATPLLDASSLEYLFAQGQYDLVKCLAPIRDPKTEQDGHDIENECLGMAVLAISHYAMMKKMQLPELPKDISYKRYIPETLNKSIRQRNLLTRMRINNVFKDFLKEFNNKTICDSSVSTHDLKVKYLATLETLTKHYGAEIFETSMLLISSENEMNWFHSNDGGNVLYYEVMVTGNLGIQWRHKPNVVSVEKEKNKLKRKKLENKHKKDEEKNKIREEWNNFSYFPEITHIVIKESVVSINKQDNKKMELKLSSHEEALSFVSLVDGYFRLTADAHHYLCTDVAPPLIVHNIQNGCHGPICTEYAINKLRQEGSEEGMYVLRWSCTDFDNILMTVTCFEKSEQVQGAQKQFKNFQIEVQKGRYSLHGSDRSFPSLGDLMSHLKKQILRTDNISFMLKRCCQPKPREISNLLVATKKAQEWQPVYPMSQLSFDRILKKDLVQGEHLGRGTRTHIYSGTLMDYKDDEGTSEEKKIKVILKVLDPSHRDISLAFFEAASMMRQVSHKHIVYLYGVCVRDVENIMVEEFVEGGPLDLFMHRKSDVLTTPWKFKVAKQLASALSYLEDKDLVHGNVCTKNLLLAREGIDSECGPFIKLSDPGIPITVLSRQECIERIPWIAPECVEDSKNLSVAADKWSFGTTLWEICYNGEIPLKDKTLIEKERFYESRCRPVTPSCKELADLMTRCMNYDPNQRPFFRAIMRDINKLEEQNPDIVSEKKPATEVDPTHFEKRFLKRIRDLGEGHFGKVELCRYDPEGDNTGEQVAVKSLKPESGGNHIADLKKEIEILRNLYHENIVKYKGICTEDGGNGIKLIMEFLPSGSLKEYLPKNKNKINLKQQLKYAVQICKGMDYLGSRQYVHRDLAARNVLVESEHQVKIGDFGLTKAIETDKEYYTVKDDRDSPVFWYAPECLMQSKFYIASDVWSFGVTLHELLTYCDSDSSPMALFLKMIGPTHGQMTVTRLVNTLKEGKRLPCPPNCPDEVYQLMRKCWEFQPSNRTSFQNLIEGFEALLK

JAK2 = JAK2 (Homo sapiens (Human), UniProt O60674); experiment: LanthaScreen JAK biochemical assay (JAK2)
JAK2, sequence (O60674 whole entry): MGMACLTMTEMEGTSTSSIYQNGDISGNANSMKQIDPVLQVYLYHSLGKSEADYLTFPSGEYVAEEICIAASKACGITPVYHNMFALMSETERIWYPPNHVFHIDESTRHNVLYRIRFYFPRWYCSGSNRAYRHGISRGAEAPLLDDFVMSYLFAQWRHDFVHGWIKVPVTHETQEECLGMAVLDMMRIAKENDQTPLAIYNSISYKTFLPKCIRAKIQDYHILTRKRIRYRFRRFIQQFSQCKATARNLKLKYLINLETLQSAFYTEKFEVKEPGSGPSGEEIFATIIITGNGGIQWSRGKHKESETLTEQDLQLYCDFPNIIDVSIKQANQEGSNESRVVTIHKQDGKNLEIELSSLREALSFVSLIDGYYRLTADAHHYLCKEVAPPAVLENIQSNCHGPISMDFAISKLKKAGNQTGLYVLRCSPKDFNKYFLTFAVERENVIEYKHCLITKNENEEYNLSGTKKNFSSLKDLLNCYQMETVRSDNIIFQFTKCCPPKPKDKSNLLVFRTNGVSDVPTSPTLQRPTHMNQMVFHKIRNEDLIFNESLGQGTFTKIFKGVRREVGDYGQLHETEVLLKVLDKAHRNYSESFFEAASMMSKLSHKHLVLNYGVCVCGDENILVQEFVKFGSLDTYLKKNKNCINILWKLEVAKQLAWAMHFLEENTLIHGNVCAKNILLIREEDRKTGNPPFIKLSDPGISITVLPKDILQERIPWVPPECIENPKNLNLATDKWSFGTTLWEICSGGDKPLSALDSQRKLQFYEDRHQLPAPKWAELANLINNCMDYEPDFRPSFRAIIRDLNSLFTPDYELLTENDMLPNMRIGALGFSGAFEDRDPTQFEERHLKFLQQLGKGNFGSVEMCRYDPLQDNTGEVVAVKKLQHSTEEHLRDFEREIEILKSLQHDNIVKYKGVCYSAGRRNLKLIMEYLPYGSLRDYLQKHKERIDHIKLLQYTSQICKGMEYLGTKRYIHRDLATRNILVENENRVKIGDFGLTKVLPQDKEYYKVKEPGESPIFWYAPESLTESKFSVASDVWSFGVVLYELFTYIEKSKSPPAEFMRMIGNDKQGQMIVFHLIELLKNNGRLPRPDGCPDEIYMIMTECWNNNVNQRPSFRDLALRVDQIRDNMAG

[2] = IL-4 induced STAT6 phosphorylation, THP-1 cells
[3] = Homo sapiens, THP-1, read-out: THP-1 IL4 pIC50 (converted)
[4] = read-out: JAK 1 (pKi) (converted)
[5] = THP-1 cells, IL-4 induced STAT6 phosphorylation

Row | SMILES | THP-1 IL4 pIC50 [1, 2] | JAK 1 (pKi) (JAK1) | also measured
1 | Cc1cc(Nc2cc3ncccc3c(N[C@@H]3C[C@H]4CC[C@@H](C3)N4CCCF)n2)n[nH]1 [Example 1-9] | C (C represents a pEC50 value<6.7 (EC50>200 nM)) | B (B represents a pKi value between 9 and 10 (Ki between 1 nM and 0.1 nM)) | 
2 | Cc1cc(Nc2cc3ncccc3c(N[C@@H]3C[C@H]4CC[C@@H](C3)N4CC(C)C)n2)n[nH]1 [Example 1-13] | A (A represents a pEC50 value≥7.5 (EC50≤32 nM)) | B (B represents a pKi value between 9 and 10 (Ki between 1 nM and 0.1 nM)) | 
3 | Cc1cc(Nc2cc3ncccc3c(N[C@@H]3C[C@H]4CC[C@@H](C3)N4Cc3ccc(O)cc3)n2)n[nH]1 [Example 1-18] |  |  | IC50 [1, 3]: > 0.2 µM; Ki (JAK1; [4]): 0.0001 to 0.001 µM
4 | COC(=O)CN1[C@@H]2CCC[C@H]1C[C@H](Nc1nc(Nc3cc(C)[nH]n3)cc3ncccc13)C2 [Example 1-32] | C (C represents a pEC50 value<6.7 (EC50>200 nM)) |  | JAK 2 (pKi) (JAK2): A (A represents a pKi value≥10 (Ki≤0.1 nM))
5 | COC(=O)CCCN1[C@@H]2CCC[C@H]1C[C@H](Nc1nc(Nc3cc(C)[nH]n3)cc3ncccc13)C2 [Example 1-34] | C (C represents a pEC50 value<6.7 (EC50>200 nM)) | B (B represents a pKi value between 9 and 10 (Ki between 1 nM and 0.1 nM)) | 
6 | COCCCN1[C@@H]2CCC[C@H]1C[C@H](Nc1nc(Nc3cc(C)[nH]n3)cc3ncccc13)C2 [Example 1-46] | B (B represents a pEC50 value between 6.7 and 7.5 (EC50 between 200 nM and 32 nM)) | B (B represents a pKi value between 9 and 10 (Ki between 1 nM and 0.1 nM)) | 
7 | Cc1cc(Nc2cc3ncccc3c(N[C@@H]3C[C@H]4CCC[C@@H](C3)N4CC3COC(=O)O3)n2)n[nH]1 (stereo partly shown) [Example 1-58] | B (B represents a pEC50 value between 6.7 and 7.5 (EC50 between 200 nM and 32 nM)) |  | JAK 2 (pKi) (JAK2): A (A represents a pKi value≥10 (Ki≤0.1 nM))
8 | COC(=O)C1(C(=O)N2[C@@H]3CCC[C@H]2C[C@H](Nc2nc(Nc4cc(C)[nH]n4)cc4ncccc24)C3)CC1 [Example 2-21] | B (B represents a pEC50 value between 6.7 and 7.5 (EC50 between 200 nM and 32 nM)) |  | JAK 2 (pKi) (JAK2): B (B represents a pKi value between 9 and 10 (Ki between 1 nM and 0.1 nM))
9 | Cc1cc(Nc2cc3ncccc3c(N[C@@H]3C[C@H]4CCC[C@@H](C3)N4C(=O)C3(C)CCCC3)n2)n[nH]1 [Example 2-23] | B (B represents a pEC50 value between 6.7 and 7.5 (EC50 between 200 nM and 32 nM)) |  | JAK 2 (pKi) (JAK2): B (B represents a pKi value between 9 and 10 (Ki between 1 nM and 0.1 nM))
10 | Cc1cc(Nc2cc3ncccc3c(N[C@@H]3C[C@H]4CC[C@@H](C3)N4C(=O)OCC(C)C)n2)n[nH]1 [Example 3-3] | A (A represents a pEC50 value≥7.5 (EC50≤32 nM)) | B (B represents a pKi value between 9 and 10 (Ki between 1 nM and 0.1 nM)) | 
11 | COCCOC(=O)N1[C@@H]2CC[C@H]1C[C@H](Nc1nc(Nc3cc(C)[nH]n3)cc3ncccc13)C2 [Example 3-5] | B (B represents a pEC50 value between 6.7 and 7.5 (EC50 between 200 nM and 32 nM)) | B (B represents a pKi value between 9 and 10 (Ki between 1 nM and 0.1 nM)) | 
12 | Cc1cc(Nc2cc3ncccc3c(N[C@@H]3C[C@H]4CC[C@@H](C3)N4S(=O)(=O)C3(C)CC3)n2)n[nH]1 [Example 4-8] |  |  | IC50 [1, 3]: < 0.0316 µM; Ki (JAK1; [4]): […]
13 | Cc1cc(Nc2cc3ncccc3c(N[C@@H]3C[C@H]4CC[C@@H](C3)N4S(=O)(=O)C3CN(CCC#N)C3)n2)n[nH]1 [Example 4-11] |  |  | IC50 [1, 3]: > 0.2 µM; Ki (JAK1; [4]): 0.0001 to 0.001 µM
14 | COCC1CCCN1S(=O)(=O)N1[C@@H]2CC[C@H]1C[C@H](Nc1nc(Nc3cc(C)[nH]n3)cc3ncccc13)C2 (stereo partly shown) [Example 4-12] |  |  | IC50 [1, 3]: 0.0316 to 0.2 µM; Ki (JAK1): 0.0001 to 0.001 µM
15 | COc1ccc2c(N[C@@H]3C[C@H]4CC[C@@H](C3)N4CCCF)nc(Nc3cc(C)[nH]n3)cc2n1 [Example 5-5] | B (B represents a pEC50 value between 6.7 and 7.5 (EC50 between 200 nM and 32 nM)) | B (B represents a pKi value between 9 and 10 (Ki between 1 nM and 0.1 nM)) | 
16 | Cc1cc(Nc2cc3nc(CN4CCOCC4)ccc3c(N[C@@H]3C[C@H]4CC[C@@H](C3)N4CCC#N)n2)n[nH]1 [Example 5-18] | B (B represents a pEC50 value between 6.7 and 7.5 (EC50 between 200 nM and 32 nM)) |  | JAK 2 (pKi) (JAK2): A (A represents a pKi value≥10 (Ki≤0.1 nM))
17 | Cc1cc(Nc2cc3nc(CN4CCOCC4)ccc3c(N[C@@H]3C[C@H]4CC[C@@H](C3)N4CC(C)C)n2)n[nH]1 [Example 5-19] | B (B represents a pEC50 value between 6.7 and 7.5 (EC50 between 200 nM and 32 nM)) | B (B represents a pKi value between 9 and 10 (Ki between 1 nM and 0.1 nM)) | 
18 | COCCS(=O)(=O)N1[C@@H]2CCC[C@H]1C[C@H](Nc1nc(Nc3cc(C)[nH]n3)cc3nc(CN4CCOCC4)ccc13)C2 [Example 5-24] | B (B represents a pEC50 value between 6.7 and 7.5 (EC50 between 200 nM and 32 nM)) |  | 

Row | SMILES | THP-1 IL4 pIC50 [1, 2] | JAK 1 (pKi) (JAK1) | also measured
19 | C=CCOC(=O)N1[C@@H]2CCC[C@H]1C[C@H](Nc1nc(Nc3cc(C)[nH]n3)cc3nc(CN4CCOCC4)ccc13)C2 [Example 5-25] | B (B represents a pEC50 value between 6.7 and 7.5 (EC50 between 200 nM and 32 nM)) |  | 
20 | Cc1cc(Nc2cc3nc(CN4CCOCC4)ccc3c(N[C@@H]3C[C@H]4CCC[C@@H](C3)N4S(=O)(=O)N3CCC3)n2)n[nH]1 [Example 5-28] | B (B represents a pEC50 value between 6.7 and 7.5 (EC50 between 200 nM and 32 nM)) |  | 
21 | Cc1cc(Nc2cc3nc(CN4CCOCC4)ccc3c(N[C@@H]3C[C@H]4CCC[C@@H](C3)N4CC(F)(F)F)n2)n[nH]1 [Example 5-29] | B (B represents a pEC50 value between 6.7 and 7.5 (EC50 between 200 nM and 32 nM)) |  | JAK 2 (pKi) (JAK2): A (A represents a pKi value≥10 (Ki≤0.1 nM))
22 | CCC1(S(=O)(=O)N2[C@@H]3CC[C@H]2C[C@H](Nc2nc(Nc4cc(C)[nH]n4)cc4nc(CN5CCC(F)(F)CC5)ccc24)C3)CC1 [Example 5-32] |  |  | IC50 [1, 3]: 0.0316 to 0.2 µM
23 | Cc1cc(Nc2cc3nc(CN4CCC(F)(F)CC4)ccc3c(N[C@@H]3C[C@H]4CC[C@@H](C3)N4CC(F)(F)F)n2)n[nH]1 [Example 5-33] |  |  | IC50 [1, 3]: 0.0316 to 0.2 µM
24 | Cc1cc(Nc2cc3nc(CN4CCN(C)CC4)ccc3c(N[C@@H]3C[C@H]4CC[C@@H](C3)N4CC(F)(F)F)n2)n[nH]1 [Example 5-35] |  |  | IC50 [1, 3]: < 0.0316 µM
25 | COc1cnc2cc(Nc3cc(C)[nH]n3)nc(N[C@@H]3C[C@H]4CCC[C@@H](C3)N4CCCF)c2c1 [Example 6-26] |  | B (B represents a pKi value between 9 and 10 (Ki between 1 nM and 0.1 nM)) | THP-1 IL4 pIC50 [1, 5]: B (B represents a pEC50 value between 6.7 and 7.5 (EC50 between 200 nM and 32 nM))
26 | COC(=O)c1cnc2cc(Nc3cc(C)[nH]n3)nc(N[C@@H]3C[C@H]4CC[C@@H](C3)N4C(=O)CN(C)C)c2c1 [Example 6-39] |  | B (B represents a pKi value between 9 and 10 (Ki between 1 nM and 0.1 nM)) | THP-1 IL4 pIC50 [1, 5]: C (C represents a pEC50 value<6.7 (EC50>200 nM))
27 | COC(=O)c1cnc2cc(Nc3cc(C)[nH]n3)nc(N[C@@H]3C[C@H]4CC[C@@H](C3)N4CCCF)c2c1 [Example 6-44] |  |  | THP-1 IL4 pIC50 [1, 5]: B (B represents a pEC50 value between 6.7 and 7.5 (EC50 between 200 nM and 32 nM))
28 | Cc1cc(Nc2cc3ncc(S(C)(=O)=O)cc3c(N[C@@H]3C[C@H]4CC[C@@H](C3)N4CCCF)n2)n[nH]1 [Example 6-55] |  |  | THP-1 IL4 pIC50 [1, 5]: C (C represents a pEC50 value<6.7 (EC50>200 nM))
29 | Cc1cc(Nc2cc3ncc(S(C)(=O)=O)cc3c(N[C@@H]3C[C@H]4CC[C@@H](C3)N4[C@@H]3CCOC3=O)n2)n[nH]1 [Example 6-57] |  |  | THP-1 IL4 pIC50 [1, 5]: C (C represents a pEC50 value<6.7 (EC50>200 nM))
30 | Cc1cc(Nc2cc3ncc(S(C)(=O)=O)cc3c(N[C@@H]3C[C@H]4CC[C@@H](C3)N4[C@H]3CCOC3=O)n2)n[nH]1 [Example 6-58] |  |  | THP-1 IL4 pIC50 [1, 5]: C (C represents a pEC50 value<6.7 (EC50>200 nM))
31 | COc1ccnc2cc(Nc3cc(C)[nH]n3)nc(N[C@@H]3C[C@H]4CC[C@@H](C3)N4C(=O)OCC(C)C)c12 [Example 7-1] |  | B (B represents a pKi value between 9 and 10 (Ki between 1 nM and 0.1 nM)) | THP-1 IL4 pIC50 [1, 5]: B (B represents a pEC50 value between 6.7 and 7.5 (EC50 between 200 nM and 32 nM))
32 | COc1ccnc2cc(Nc3cc(C)[nH]n3)nc(N[C@@H]3C[C@H]4CC[C@@H](C3)N4C(=O)CN(C)C)c12 [Example 7-3] |  |  | THP-1 IL4 pIC50 [1, 5]: C (C represents a pEC50 value<6.7 (EC50>200 nM))
33 | COc1ccnc2cc(Nc3cc(C)[nH]n3)nc(N[C@@H]3C[C@H]4CC[C@@H](C3)N4CCF)c12 [Example 7-7] |  |  | THP-1 IL4 pIC50 [1, 5]: B (B represents a pEC50 value between 6.7 and 7.5 (EC50 between 200 nM and 32 nM))
34 | Cc1cc(Nc2nc(N[C@@H]3C[C@H]4CCC[C@@H](C3)N4C(=O)CN(C)C)c3cccnc3c2F)n[nH]1 [Example 8-15] |  | B (B represents a pKi value between 9 and 10 (Ki between 1 nM and 0.1 nM)) | THP-1 IL4 pIC50 [1, 5]: C (C represents a pEC50 value<6.7 (EC50>200 nM))
35 | COC(=O)c1cnc2cc(Nc3cc(C)[nH]n3)nc(N[C@@H]3C[C@H]4CC[C@@H](C3)N4C3CCCOC3=O)c2c1 (stereo partly drawn) [Example 16, Methyl 7-((5-methyl-1H-pyrazol-3-yl)amino)-5-(((1R,3s,5S)-8-(2-oxotetrahydro-2H-pyran-3-yl)-8-azabicyclo[3.2.1]octan-3-yl)amino)-1,6-naphthyridine-3-carboxylate] |  |  | IC50 [1, 3]: 0.0316 to 0.2 µM; Ki (JAK1; [4]): 0.0001 to 0.001 µM
